Calls of active or inactive are those of the source. How the calls were made is not given here.
Tested on: cytotoxicity counterscreen, ATP luminescence viability
Experiment: cytotoxicity of test compounds, late-stage follow-up, cytotoxicity control for RBBP9 inhibitor project, cell-based, luminescence (AID 2243)

In the case of C/C(=N\OC(=O)C1CCCCC1)c1nccs1, the CC50 is reported as > 100 µM (inactive).

From PubChem BioAssay AID2243 (The Scripps Research Institute Molecular Screening Center, 2010)
